Reference: patent US20130129720A1, “Combination Cancer Therapies with Wortmannin Analogs” (ONCOTHYREON INC., priority 2010, published 2013)

Assays:
[1] = aqueous solutions at 37° C. or 0° C. at neutral pH; cited from earlier work
[2] = in vivo; cited from earlier work
PIK3CA = PIK3CA (Homo sapiens, UniProt P42336); experiment: in vitro kinase assay, PIK3CA; format: biochemical
From the text: (§1) Table 1 illustrates the potency of 17-hydroxy PX-866 metabolite in in vitro kinase assays: […]

PIK3CB = PIK3CB (Homo sapiens, UniProt P42338); experiment: in vitro kinase assay, PIK3CB; format: biochemical
From the text: as §1

PIK3CD = PIK3CD (Homo sapiens, UniProt O00329); experiment: in vitro kinase assay, PIK3CD; format: biochemical
From the text: as §1

PIK3CG = PIK3CG (Homo sapiens, UniProt P48736); experiment: in vitro kinase assay, PIK3CG; format: biochemical
From the text: as §1

p110α = p110α (Homo sapiens, UniProt P42336); experiment: cell based assays, p110α; conditions: for IC50: in cell based assays
From the text: (§2) PX-866 is an pan-isoform inhibitor of Class I P1-3K that covalently binds to ATP binding site of the p110 catalytic subunit. Described herein are studies that illustrate rapid metabolism of PX-866 to a 17-hydroxy PX-866 derivative.

p110β = p110β (Homo sapiens, UniProt P42338); experiment: cell based assays, p110β; conditions: in cell based assays
From the text: as §2

[3] = Phase I trial of oral PX-866: safety, DLT and MTD; format: in vivo, human
Experimental: This was an Open-label dose escalation study with expansion cohort at Maximal Tolerated Dose (MTD), 3+3 design and to test efficacy of 2 dosing schedules (intermittent and continuous). PX-866 was administered as an oral dose.
The primary and secondary objectives were tested using two different dosing regimens: 10 days of drug administration and daily administration for 28 days.
Intermittent schedule: 10 dose levels tested (0.5-16 mg). The starting dose level was 0.5 mg. Doses increased as follows: 100% escalation up to 2 mg, 50% escalation up to 4.5 mg, and approximately 30% escalation until the MTD is identified. The highest dose level at which no more than ⅙ patients experiences DLT was declared the MTD. The resulting dose levels were: 0.5, 1, 2, 3, 4.5, 6, 8, 10, 12 and 16 mg.
FIG. 1 illustrates the dosing schedule for intermittent dosing where PX-866 was given to patients on days 1-5 and 8-12 of a 28-day cycle.
Continuous dosing schedule: The starting dose was two dose levels below the MTD of intermittent dosing (8 mg) and subsequent dose levels was one or two dose levels (10 mg or 8 mg) below the MTD of intermittent dosing dependent on recommendation of the dose cohort review committee. FIG. 1 illustrates the dosing schedule for continuous dosing.

advanced solid tumors = experiment: Phase I trial of oral PX-866: response per RECIST; format: in vivo, human
Experimental: Patient response was evaluated according to Response Evaluation Criteria in Solid Tumors (RECIST). Briefly, all measurable lesions up to a maximum of five lesions, representative of all involved organs were identified as target lesions and recorded and measured at baseline. Target lesions were selected on the basis of their size (lesions with the longest diameter) and their suitability for accurate repeated measurements (either by imaging techniques or clinically). A sum of the longest diameter (LD) for all target lesions was calculated and reported as the baseline sum LD. The baseline sum LD was used as reference by which to characterize the objective tumor. All other lesions (or sites of disease) were identified as non-target lesions and were also be recorded at baseline. Measurements of these lesions were not required, but the presence or absence of each was noted throughout follow-up.
A Complete Response (CR) indicated a disappearance of all target lesions.

[4] = tested on: PI-3K pathway (p-mTOR and p-S6); experiment: Phase I trial: pharmacodynamics in PBMCs stimulated ex vivo, FACS based assay; parameters: species or system human; conditions: PBMCs of treated patients
Experimental: The pharmacodynamic effects of PX-866 in patients treated in the phase I single agent study were assessed using isolated peripheral blood mononuclear cells (PBMCs) stimulated ex vivo via FACS based assay. […] The study provided Evidence for pathway inhibition lasting up to 3 days post-treatment.

p-AKT/T-AKT = experiment: Phase I trial: p-AKT/T-AKT pharmacodynamics; format: in vivo, human; conditions: 3 of 4 patients at 8 mg, 4 hours after a single oral dose
[5] = tested on: A549 lung tumor xenografts; conditions: 2 mg/kg PX-866 daily treatment groups
Experimental: H460 and A549 lung tumor xenografts were implanted subcutaneously in nude mice according to previously described procedures. PX-866 was tested on both a daily (2 mg/kg) and every-other-day dosing (3 mg/kg) schedule alone, and in combination with a 10 mg/kg dose of docetaxel. The dosing schedule of PX-866 relative to docetaxel was varied to test the effect of docetaxel treatment prior to or subsequent to PX-866 treatment. A table of the following dosing regimens is as follows with animals in Group 1 receiving a daily vehicle: […]

[6] = Phase I trial: clinical pharmacokinetics
clinical = conditions: human, in vivo
CUHN015 tumors = experiment: direct patient tumor model of SCCHN, CUHN015; format: in vivo, nude mice; conditions: PX-866 2 mg/kg 5 out of 7 days; docetaxel 20 mg/kg IP weekly
Experimental: Briefly, these models employed direct implantation of patients' tumors into nude mice according to Keysar et al., J Clin Oncol 28:15s, 2010 (suppl. abstruct 5558).
Animals were treated with PX-866 alone, and in combination with 20 mg/kg docetaxel dosed intraperitoneally (IP) on a weekly schedule. Saline treated animals and 20 mg/kg docetaxel dosed animals served as controls for the study.

Sequence of p110α (P42336 whole entry, canonical isoform): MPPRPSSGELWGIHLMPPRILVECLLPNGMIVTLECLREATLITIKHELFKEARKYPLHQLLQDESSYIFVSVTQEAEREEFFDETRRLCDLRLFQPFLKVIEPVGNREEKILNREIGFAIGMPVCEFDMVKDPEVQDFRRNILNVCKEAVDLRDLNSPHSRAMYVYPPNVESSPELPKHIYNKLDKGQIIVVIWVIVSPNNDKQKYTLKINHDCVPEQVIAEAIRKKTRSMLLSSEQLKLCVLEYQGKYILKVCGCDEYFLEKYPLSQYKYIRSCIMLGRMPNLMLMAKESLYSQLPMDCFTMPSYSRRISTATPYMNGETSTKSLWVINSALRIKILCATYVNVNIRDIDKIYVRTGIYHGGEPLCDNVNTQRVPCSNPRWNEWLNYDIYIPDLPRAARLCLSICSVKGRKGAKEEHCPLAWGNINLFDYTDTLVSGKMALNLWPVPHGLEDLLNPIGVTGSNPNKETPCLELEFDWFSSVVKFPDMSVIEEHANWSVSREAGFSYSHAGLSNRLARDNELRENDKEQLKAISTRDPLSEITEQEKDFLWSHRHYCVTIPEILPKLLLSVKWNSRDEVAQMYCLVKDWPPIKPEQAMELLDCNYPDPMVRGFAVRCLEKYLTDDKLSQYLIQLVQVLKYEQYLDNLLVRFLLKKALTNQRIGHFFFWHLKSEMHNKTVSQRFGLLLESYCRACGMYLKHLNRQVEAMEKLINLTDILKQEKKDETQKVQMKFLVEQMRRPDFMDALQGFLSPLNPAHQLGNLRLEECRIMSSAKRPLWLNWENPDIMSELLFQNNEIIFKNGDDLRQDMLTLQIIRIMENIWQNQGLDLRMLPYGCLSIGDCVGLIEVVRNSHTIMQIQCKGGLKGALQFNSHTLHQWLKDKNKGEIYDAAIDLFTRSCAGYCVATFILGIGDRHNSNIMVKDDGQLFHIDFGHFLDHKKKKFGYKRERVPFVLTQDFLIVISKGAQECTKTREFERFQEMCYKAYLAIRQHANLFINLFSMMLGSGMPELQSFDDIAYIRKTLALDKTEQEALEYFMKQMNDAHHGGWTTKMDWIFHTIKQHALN
Sequence of p110α (P27986 whole entry partner, canonical isoform): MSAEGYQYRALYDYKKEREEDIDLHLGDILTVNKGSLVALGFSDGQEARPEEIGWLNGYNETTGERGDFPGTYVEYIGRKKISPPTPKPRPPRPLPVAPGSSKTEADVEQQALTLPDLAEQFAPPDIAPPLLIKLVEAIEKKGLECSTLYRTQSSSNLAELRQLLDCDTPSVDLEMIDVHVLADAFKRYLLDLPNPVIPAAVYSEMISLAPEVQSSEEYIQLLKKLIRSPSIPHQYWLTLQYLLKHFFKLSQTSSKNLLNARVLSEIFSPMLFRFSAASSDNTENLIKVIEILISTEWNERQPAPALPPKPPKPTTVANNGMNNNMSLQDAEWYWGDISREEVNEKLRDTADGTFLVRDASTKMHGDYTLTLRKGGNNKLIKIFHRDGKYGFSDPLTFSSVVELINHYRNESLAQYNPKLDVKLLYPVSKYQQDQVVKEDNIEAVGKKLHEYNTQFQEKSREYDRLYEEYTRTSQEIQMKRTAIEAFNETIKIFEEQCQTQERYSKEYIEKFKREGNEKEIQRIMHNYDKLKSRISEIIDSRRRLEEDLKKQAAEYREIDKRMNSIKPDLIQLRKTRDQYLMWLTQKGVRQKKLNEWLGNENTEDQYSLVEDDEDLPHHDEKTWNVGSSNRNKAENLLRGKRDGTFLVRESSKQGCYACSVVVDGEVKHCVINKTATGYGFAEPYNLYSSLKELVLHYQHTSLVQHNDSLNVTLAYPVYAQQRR
Sequence of PIK3CB (P42338 whole entry): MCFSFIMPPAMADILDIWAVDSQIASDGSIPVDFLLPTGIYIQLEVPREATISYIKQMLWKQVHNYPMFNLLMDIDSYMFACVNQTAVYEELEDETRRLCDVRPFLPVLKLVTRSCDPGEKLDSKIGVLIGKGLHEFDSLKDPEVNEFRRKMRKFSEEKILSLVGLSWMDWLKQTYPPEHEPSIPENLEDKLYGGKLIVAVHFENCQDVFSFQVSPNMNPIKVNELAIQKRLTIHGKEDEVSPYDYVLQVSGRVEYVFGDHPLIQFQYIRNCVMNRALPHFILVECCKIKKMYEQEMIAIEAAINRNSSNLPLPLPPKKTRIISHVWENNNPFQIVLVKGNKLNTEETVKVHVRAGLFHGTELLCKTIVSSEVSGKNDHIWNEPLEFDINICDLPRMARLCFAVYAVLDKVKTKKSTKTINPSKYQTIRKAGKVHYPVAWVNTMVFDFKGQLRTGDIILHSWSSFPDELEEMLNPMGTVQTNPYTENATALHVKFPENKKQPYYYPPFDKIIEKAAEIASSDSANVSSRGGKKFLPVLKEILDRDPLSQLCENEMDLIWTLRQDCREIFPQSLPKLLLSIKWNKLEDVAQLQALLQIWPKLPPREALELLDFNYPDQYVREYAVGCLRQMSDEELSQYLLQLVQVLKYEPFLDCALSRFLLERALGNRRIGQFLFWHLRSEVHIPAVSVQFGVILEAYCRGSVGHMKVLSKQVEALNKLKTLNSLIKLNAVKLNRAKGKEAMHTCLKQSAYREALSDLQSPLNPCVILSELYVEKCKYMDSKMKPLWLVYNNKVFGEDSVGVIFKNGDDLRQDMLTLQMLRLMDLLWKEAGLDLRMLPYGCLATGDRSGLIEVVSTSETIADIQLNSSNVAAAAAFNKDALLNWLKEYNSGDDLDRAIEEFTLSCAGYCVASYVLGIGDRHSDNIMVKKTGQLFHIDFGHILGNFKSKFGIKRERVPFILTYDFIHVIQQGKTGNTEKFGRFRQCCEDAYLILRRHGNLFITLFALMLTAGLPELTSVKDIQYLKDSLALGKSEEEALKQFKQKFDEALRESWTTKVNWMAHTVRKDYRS
Sequence of PIK3CB (P27986 whole entry partner): as the sequence (P27986 whole entry partner, canonical isoform) above
Sequence of p110β (P42338 whole entry): as the sequence (P42338 whole entry) above
Sequence of p110β (P27986 whole entry partner): as the sequence (P27986 whole entry partner, canonical isoform) above
Sequence of PIK3CA (P42336 whole entry): as the sequence (P42336 whole entry, canonical isoform) above
Sequence of PIK3CA (P27986 whole entry partner): as the sequence (P27986 whole entry partner, canonical isoform) above
Sequence of PIK3CD (O00329 whole entry): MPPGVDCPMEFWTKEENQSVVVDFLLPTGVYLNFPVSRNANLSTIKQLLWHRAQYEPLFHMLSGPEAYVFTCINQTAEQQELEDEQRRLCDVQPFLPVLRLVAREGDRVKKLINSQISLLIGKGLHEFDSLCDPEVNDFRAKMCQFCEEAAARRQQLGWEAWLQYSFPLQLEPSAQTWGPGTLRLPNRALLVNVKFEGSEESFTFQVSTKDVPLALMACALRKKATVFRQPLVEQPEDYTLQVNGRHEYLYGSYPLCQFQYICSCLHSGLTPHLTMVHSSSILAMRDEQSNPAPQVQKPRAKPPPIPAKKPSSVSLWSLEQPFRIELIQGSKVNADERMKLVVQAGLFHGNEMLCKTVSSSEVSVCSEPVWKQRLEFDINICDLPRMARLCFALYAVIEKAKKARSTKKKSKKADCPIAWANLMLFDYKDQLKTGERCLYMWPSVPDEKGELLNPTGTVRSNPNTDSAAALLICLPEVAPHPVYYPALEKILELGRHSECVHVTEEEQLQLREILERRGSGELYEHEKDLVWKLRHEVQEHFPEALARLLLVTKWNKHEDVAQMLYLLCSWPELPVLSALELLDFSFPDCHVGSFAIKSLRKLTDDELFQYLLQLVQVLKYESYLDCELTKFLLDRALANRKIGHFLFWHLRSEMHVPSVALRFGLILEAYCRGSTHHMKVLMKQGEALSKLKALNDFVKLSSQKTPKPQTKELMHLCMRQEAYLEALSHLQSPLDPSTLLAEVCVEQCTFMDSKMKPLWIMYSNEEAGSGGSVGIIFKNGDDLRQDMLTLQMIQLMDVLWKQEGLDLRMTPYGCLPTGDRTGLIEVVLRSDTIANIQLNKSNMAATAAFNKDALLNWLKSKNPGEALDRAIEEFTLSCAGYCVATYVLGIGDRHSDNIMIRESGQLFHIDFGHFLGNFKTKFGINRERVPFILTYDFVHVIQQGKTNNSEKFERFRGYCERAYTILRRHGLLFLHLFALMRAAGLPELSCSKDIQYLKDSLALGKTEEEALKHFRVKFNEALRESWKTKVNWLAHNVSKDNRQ
Sequence of PIK3CD (P27986 whole entry partner): as the sequence (P27986 whole entry partner, canonical isoform) above

What does the source list for `COC[C@H]1OC(=O)c2coc3c2[C@@]1(C)C1=C(C3=O)[C@@H]2CCC(=O)[C@@]2(C)C[C@H]1OC(C)=O` [Wortmannin]?
stability [1]: subject to decomposition by hydrolytic opening of the furan ring; toxicity [2]: liver and hematologic toxicity

For `C=CCN(/C=C1/C(=O)O[C@H](COC)[C@@]2(C)C1=C(O)C(=O)C1=C2[C@H](OC(C)=O)C[C@]2(C)C(=O)CC[C@@H]12)CC=C` [PX-866, Acetic acid 4-diallylaminomethylene-6-hydroxy-1-α-methoxymethyl-10β,13β-dimethyl-3,7,17-trioxo-1,3,4,7,10,11β,12,13,14α,15,16,17-dodecahydro-2-oxa-cyclopenta[α]phenanthren-11-yl ester], which IC50 (PIK3CA) is on record?
Its IC50 is 39 nM.

And the IC50 (PIK3CB)?
The IC50 was 88 nM.

And the IC50 (PIK3CD)?
Its IC50 is 124 nM.

What about the IC50 (PIK3CG) of the same compound?
Its IC50 is 198 nM.

What about the IC50 (p110α) of the same compound?
The IC50 was 39 nM.

What about the IC50 (p110β) of the same compound?
The IC50 was 88 nM.

What about the ALT/AST elevation ([3]; continuous dosing) of the same compound?
Its ALT/AST elevation is “ALT/AST elevation was observed”.

And the “Most common adverse events (AEs)” value ([3]; continuous dosing)?
The value was “diarrhea, nausea, vomiting, headache and fatigue”.

And the “DLT, patients” value ([3]; continuous dosing, 10 mg per day)?
The value was 2/3.

What about the “Most common adverse events (AEs)” value ([3]; intermittent dosing) of the same compound?
The value was “diarrhea, nausea, vomiting, and constipation”.

What about the “toxicity in patients receiving >2 cycles” value ([3]; intermittent dosing schedule) of the same compound?
Its value is “No significant increase in toxicity”.

And the “Dose limiting toxicity (DLT), patients” value ([3]; intermittent dosing, 16 mg per day)?
The value was 2/5.

And the “Maximal Tolerated Dose (MTD) for continuous dosing” value ([3]; oral, daily for 28 days)?
Its value is 8 mg per day.

What about the “Maximal Tolerated Dose (MTD) for intermittent dosing” value ([3]; oral, days 1-5 and 8-12 of a 28-day cycle) of the same compound?
The value was 12 mg per day.

And the “Disease stabilization, patients” value (advanced solid tumors; continuous dosing)?
Its value is 71%.

And the “Disease stabilization, patients” value (advanced solid tumors; intermittent dosing)?
The value was 16%.

What about the “duration of pathway inhibition post-treatment” value [4] of the same compound?
Its value is “up to 3 days”.

And the “decrease in p-AKT/T-AKT” value (p-AKT/T-AKT)?
Its value is at least 60%.

And the mortality [5]?
Its mortality is “Increased mortality”.

And the “conversion of parent to 17-OH metabolite” value ([6]; oral, patients)?
The value was “rapid conversion”.

And the “plasma level of parent” value ([6]; oral, patients, with rare exceptions)?
Its value is “below the limits of detection”.

For `C=CCN(C=C1C(=O)OC(COC)C2(C)C1=C(O)C(=O)C1=C2C(OC(C)=O)CC2(C)C(O)CCC12)CC=C` (centres unmarked) [17-OH PX-866], which IC50 (PIK3CA) is on record?
The IC50 was 14 nM.

And the IC50 (PIK3CB)?
Its IC50 is 57 nM.

And the IC50 (PIK3CD)?
The IC50 was 131 nM.

What about the IC50 (PIK3CG) of the same compound?
The IC50 was 148 nM.

And the increase in potency (p110α; cell proliferation assays versus p110α and p110β isoforms, relative to PX-866)?
The increase in potency was 2-5 fold.

And the IC50 (p110α)?
The IC50 was 14 nM.

And the IC50 (p110β)?
The IC50 was 57 nM.

What about the AUC(0-t) (clinical; 8 mg) of the same compound?
The AUC(0-t) was 4.22 ng·h/mL.

And the Cmax (clinical; 8 mg)?
The Cmax was 1.14 ng/mL.

What about the half-life (clinical; 8 mg) of the same compound?
Its half-life is 3.62 h.

And the Tmax (clinical; po)?
The Tmax was 0.67 to 1.07 h.

What about the drug accumulation ([6]; 12 mg cohort, intermittent dosing) of the same compound?
Its drug accumulation is “no evidence of drug accumulation”.

What about the “AUC in humans compared with mice” value ([6]; due to increased mean residence time in humans) of the same compound?
Its value is “exceeded AUC in mice”.

And the “Cmax in humans compared with mice” value ([6]; mice treated at an efficacious dose of PX-866 (2 mg/kg))?
The value was “equal to or exceed peak levels observed in mice”.

With `CC(=O)O[C@@]12CO[C@@H]1C[C@H](O)[C@@]1(C)C(=O)[C@H](O)C3=C(C)[C@@H](OC(=O)[C@H](O)[C@@H](NC(=O)OC(C)(C)C)c4ccccc4)C[C@@](O)([C@@H](OC(=O)c4ccccc4)[C@H]21)C3(C)C` [docetaxel, (2R,3S)—N-carboxy-3-phenylisoserine,N-tert-butyl ester, 13-ester with 5β-20-epoxy-1,2α,4,7β,10β,13α-hexahydroxytax-11-en-9-one 4-acetate 2-benzoate, trihydrate] as the compound, how does the tumor growth (CUHN015 tumors) read?
Its tumor growth is “no effect on tumor growth”.
